# Data: patent US6709830B2, “Methods for modulating the activation of a lymphocyte expressed G protein coupled receptor involved in cell proliferation, autoimmunity and inflammation” (The Regents of the University of California, priority 1997, dated 2004)
# Entries after “also recorded” stand apart in the source; their conditions may differ.
# Experiments:
# G2A [1] = target: T1, G2A (Mus musculus, UniProt Q9Z282); assay: Radioligand binding assay with cell homogenates of HEK 293 G2A.GFP cells; details: for competition for binding of [3H] 16:0 LPC / [3H] SPC to G2A: radioligand 1 nM, unlabelled lipids 100 nM, HEK 293 G2A.GFP
# T1 construct: expressed in transfected cells; host or cells: MCF 10A (human breast epithelial cells, no endogenous G2A), plasmid pEXV3 G2A.GFP
# T1 sequence (Q9Z282 1-382): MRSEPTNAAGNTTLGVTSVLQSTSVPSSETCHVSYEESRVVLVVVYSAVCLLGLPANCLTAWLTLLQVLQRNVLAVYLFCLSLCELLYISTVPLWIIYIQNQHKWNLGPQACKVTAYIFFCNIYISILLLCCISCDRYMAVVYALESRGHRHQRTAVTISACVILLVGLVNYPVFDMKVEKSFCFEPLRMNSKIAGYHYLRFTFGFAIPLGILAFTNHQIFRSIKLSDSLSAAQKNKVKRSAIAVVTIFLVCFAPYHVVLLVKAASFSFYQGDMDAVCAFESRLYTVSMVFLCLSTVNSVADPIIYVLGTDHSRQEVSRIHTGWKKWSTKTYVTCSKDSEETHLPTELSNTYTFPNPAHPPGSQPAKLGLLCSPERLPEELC
# Description: To characterise the binding of LPC and SPC to G2A, we performed radioligand binding assays as described previously (Xu, Y, e al, Nature Cell Biology, 2: pp261-267, 2000). [^3H] 16:0 LPC and [^3H] SPC bound to cell homogenates from G2A expressing HEK 293 cells in a time-dependent manner and reached equilibrium after 60 minutes incubation at 4° C. (FIGS. 5A and B). […] LPC and [^3H] SPC. Binding of [^3H] LPC and [^3H] […] The maximum binding capacities for LPC and SPC were approximately 1,503 fmole/10^5 cells and 1,840 fmole/10^5 cells respectively.
# Binding assay HEK 293 GFP or HEK 293 G2A.GFP cells were serum starved for 20 hours and subsequently collected in PBS/EDTA. Pelleted cells were stored at −80° C. until use. Frozen cells (10^6 cells/ml) were homogenized in “binding buffer” containing 20 mM Tris-HCl pH 7.5, 100 mM NaCl, 15 mM NaF, 0.2 mM PMSF, 1 mM MgCl2 and 4 mg/ml fatty acid-free BSA in a tight-fit glass Dounce homogeniser. Assays were performed in 96-well plates in triplicate with 100 μl cell homogenate (equivalent to 10^5 cells/well). Varying amounts of [^3H] 16:0 LPC or [^3H] SPC were added to cell homogenates in 50 μl of binding buffer in the presence or absence of cold 16:0 LPC or SPC, or other competitors. Plates were incubated at 4° C. for 2 hours, or for the indicated times. Cell-bound [^3H] LPC or [^3H] SPC was collected onto a filter (Printed Filtermat A, Wallac, Gaithersburg, Md.) using an automated cell harvester (HARVESTER 96, Tomtec, Orange, Conn.). A pause wash programme (five cycle washes) was used. Filters were presoaked in 1% polyethyleneimine (Sigma) to prevent nonspecific binding, dried, sealed in bags (Sample Bag, Wallac) with 4.5 ml Betaplate “Scint” scintillation cocktail (Wallac), and counted in a 1450 Microbeta Trilux Liquid Scintillation and Luminescence Counter (Wallac). Specific binding was calculated by subtraction of nonspecific binding (binding detected in the presence of 100-fold excess unlabelled lipid) from total binding.
# G2A [2] = target: T1, G2A; assay: Calcium assay ([Ca2+]i, Fura-2) in G2A.GFP transfected MCF 10A cells; format: cell-based; details: for transient increase in [Ca2+]i: LPC 0.1 μM, SPC 0.1 μM, LPA 1 μM, PAF 0.1 μM, ATP 20 μM; for desensitisation to subsequent stimulation with LPC or SPC (1 μM): pretreatment 5 minutes with LPC 1 μM or SPC 10 μM (b23 prints SPC 1.0 μM)
# Description: (§1) MCF 10A cells were cultured in specialised glass-bottom dishes (Bioptech, Inc., Butler, Pa.) and loaded with Fura-2/AM ([…]; Molecular Probes) at 37° C. for 30 minutes in HEPES buffered saline (pH 7.4) containing 125 mM NaCl, 5 mM KCl, 1.2 mM MgSO4, 11 mM glucose, 1.8 mM CaCl2, 25 mM HEPES, 0.2% BSA. Loaded cells were washed, placed in HEPES buffeted saline without BSA, and incubated for 30 minutes at ambient temperature ensure dye hydrolysis by cytosolic esterases. Using a dual-wavelength spectrofluorometer (RFK-6002, Photon Technology Int'l, So. Brunswick, N.J.) coupled to an inverted fluorescence microscope (Olympus, IX-70, Lake Success, N.Y.), GFP-positive cells were identified using an excitation wavelength of 488 nm, a dichroic 505 nm long-pass and an emitter bandpass of 535 nm (Chroma Technology, Brattleboro, Vt.). [Ca^2+], measurements were performed on individual GFP-positive cells at excitation wavelengths of 340 nm and 380 nm, and an emission wavelength of 510 nm. Prior to data acquisition, background fluorescence (areas without cells) was measured and automatically subtracted from subsequent measurements. Agonists were diluted in HEPES buffered saline and solution changes accomplished by rapidly aspirating the buffer and replacing it with HEPES buffered saline containing the specific agonist. Fura-2 fluorescence signals (340 nm, 380 nm and the 340/380 ratio) originating from individual GFP-positive cells were continuously monitored at a sampling frequency of 25 Hz and collected using a software package from Photon Technology International (Felix™). Conversion of the 340 nm/380 nm ratio value into [Ca^2+]i was estimated by comparing the cellular fluorescence ratio with ratios acquired using Fura-2 (free acid) in buffers containing known Ca^2+ concentrations. [Ca^2+]i was then calculated as described by Grynkiewicz, et al (Grynkiewicz, G, et al, J Biol Chem, 260: pp3440-3450, 1985). All assays were performed in assay buffers containing 1 mM EGTA to exclude measurement of calcium influx.
# (§2) To address whether G2A is a lysophospholipid receptor, we examined signalling events in cells ectopically expressing G2A as functional correlates of receptor activation. […] [Ca^2+]i measurements were performed in MCF 10A cells transfected with plasmids encoding green fluorescent protein (GFP) tagged G2A (pEXV3 G2A.GFP) (Kabarowski, J H S, et al, PNAS, 97: pp12109-12114, 2000) or GFP as described (Yan Xu and Derek S. Damron, Methods in Molecular Medicine, 39: Ovarian Cancer: Methods and Protocols, pp611-619, 2000). […] Similarly, dose-dependent responses of G2A.GFP transfected cells to SPC were observed, with an EC50 of approximately 0.4 μM (FIG. 4B). […] Responses to these agonists were not affected by G2A.GFP expression (FIG. 4A, middle and lower panels).
# MCF 10A cells = assay: Calcium assay ([Ca2+]i, Fura-2) in parental or pEXV3 GFP transfected MCF 10A cells (control); format: cell-based, human; details: SPC or LPC up to 10 μM, LPA 1 μM, PAF 0.1 μM, ATP 20 μM
# Description: as §1, §2
# G2A.GFP fusion receptor = target: T2, G2A.GFP fusion receptor (Mus musculus, UniProt Q9Z282); assay: Internalisation of G2A.GFP in HEK 293 G2A.GFP cells (confocal microscopy); format: cell-based; details: lipid 0.1 μM, 2 hours, serum starved HEK 293 G2A.GFP cells
# T2 construct: expressed in transfected cells; host or cells: HEK 293 cells infected with amphotropic MSCV G2A.GFP retrovirus
# T2 sequence (Q9Z282 1-382): T1 sequence (Q9Z282 1-382)
# Description: Agonist dependent receptor internalisation is a feature of GPCRs. G2A.GFP expressing HEK 293 cells (HEK 293 G2A.GFP) were generated by infection with amphotropic MSCV G2A.GFP retroviruses. In serum starved HEK 293 G2A.GFP cells, G2A.GFP is expressed predominantly on the plasma membrane. LPC (0.1 μM), as well as SPC (1 μM), induced internalisation of G2A.GFP in over 90% of cells (FIG. 6). Neither LPA, S-1-P or PAF induced G2A internalisation, which is consistent with LPC acting as a specific ligand for G2A. Treatment of HEK 293 G2A.GFP cells with SPC at low concentrations (0.1 μM) induced receptor internalisation in fewer cells (<50%).
# HEK 293 G2A.GFP cells were seeded onto glass coverslips and subsequently serum starved for 16-24 hours prior to treatment with lipids. Two hours following lipid treatment, coverslips were washed with cold PBS and fixed with PBS/4% paraformaldehyde. Subcellular localisation of G2A.GFP was visualised under a confocal fluorescence microscope with a 60× oil immersion lens.
# [3] = G2A.GFP transfected MCF 10A cells
# [4] = PTX 100 ng/ml, 16 hours, G2A.GFP-transfected MCF 10A cells
# [5] = BN 52021 200 μM pretreatment, G2A.GFP-transfected MCF 10A cells
# [6] = G2A.GFP-transfected MCF 10A cells
compound,measurement,setting,value
sphingomyelin [SM],competition for binding of [3H] 16:0 LPC / [3H] SPC to G2A,G2A [1],not
Nc1ncnc2c1ncn2[C@@H]1O[C@H](COP(=O)(O)OP(=O)(O)OP(=O)(O)O)[C@@H](O)[C@H]1O [ATP],transient increase in [Ca2+]i,G2A [2]; [3],transient elevations
same,[Ca2+]i response in control cells,MCF 10A cells,transient elevations
CCCCCCCCCCCCCCCCOC[C@H](COP(=O)([O-])OCC[N+](C)(C)C)OC(C)=O [PAF],competition for binding of [3H] 16:0 LPC / [3H] SPC to G2A,G2A [1],not
same,transient increase in [Ca2+]i,G2A [2]; [3],transient elevations
same,[Ca2+]i response in control cells,MCF 10A cells,transient elevations
lysophosphatidylinositol [LPI],competition for binding of [3H] 16:0 LPC / [3H] SPC to G2A,G2A [1],not
CCCCCCCCCCCCCCCCOC[C@@H](O)COP(=O)([O-])OCC[N+](C)(C)C [lyso-PAF],competition for binding of [3H] 16:0 LPC / [3H] SPC to G2A,G2A [1],not
Pertussis Toxin [PTX],"effect of pretreatment on [Ca2+]i increases induced by LPA (1 μM), LPC (0.1 μM-5 μM) and SPC (1 μM-5 μM)",G2A [2]; [4],inhibits
same,effect of pretreatment on [Ca2+]i increases induced by PAF (0.1 μM) or ATP (20 μM),G2A [2]; [4],not
CCCCCCCCCCCCCC(=O)OC[C@@H](O)COP(=O)([O-])OCC[N+](C)(C)C [14:0 LPC],competition for binding of [3H] 16:0 LPC / [3H] SPC to G2A,G2A [1],not and not able to compete
CC1C(=O)OC2C(O)C34C5CC(C(C)(C)C)C36C(OC(=O)C6O)OC4(C(=O)O5)C12O (stereo not drawn) [BN 52021],"effect of pretreatment on [Ca2+]i increase induced by LPC (1 μM), SPC (1 μM), LPA (1 μM) or ATP (20 μM)",G2A [2]; [5],not
same,effect of pretreatment on [Ca2+]i increase induced by PAF,G2A [2]; [5],completely blocked
CCCCCCCCCCCCC/C=C/[C@@H](O)[C@@H](N)COP(=O)(O)O [S-1-P],competition for binding of [3H] 16:0 LPC / [3H] SPC to G2A,G2A [1],not
"CCCCCCCCCCCCCC(=O)O[C@@H]1[C@@H](C)[C@@]2(O)[C@@H](C=C(CO)C[C@]3(O)C(=O)C(C)=C[C@@H]23)[C@@H]2C(C)(C)[C@]12OC(C)=O [PMA, Phorbol 12-myristate 13-acetate]","effect of pretreatment on [Ca2+]i increases induced by LPA, LPC and SPC (up to 10 μM)","G2A [2]; PMA 100 nM (b23 prints 0.1 mM), 5 minutes, G2A.GFP-transfected MCF 10A cells",abolished; also recorded: inhibits
same,effect of pretreatment on [Ca2+]i increases induced by PAF (0.1 μM) and ATP (20 μM),"G2A [2]; PMA 100 nM, 5 minutes, G2A.GFP-transfected MCF 10A cells",did not affect
"CCCCCCCCCCCCC/C=C/[C@@H](O)[C@@H](N)COP(=O)([O-])OCC[N+](C)(C)C [SPC, sphingosylphosphorylcholine]",Kd,"G2A [1]; Scatchard analysis, saturation binding of [3H] 16:0 LPC or [3H] SPC, HEK 293 G2A.GFP cell homogenate, 4° C., read-out: dissociation constant (Kd)",229 nM
same,competition for binding of [3H] 16:0 LPC / [3H] SPC to G2A,G2A [1],competed for binding
same,maximum binding capacity,"G2A [1]; saturation binding, HEK 293 G2A.GFP cell homogenate","~1,840 fmole/10^5 cells"
same,EC50,"G2A [2]; G2A.GFP transfected MCF 10A cells, 1 mM EGTA in buffer, read-out: EC50 of dose-dependent increase in [Ca2+]i",~400 nM
same,transient increase in [Ca2+]i,G2A [2]; [3],"induced a transient increase in [Ca^2+], albeit to a lesser extent; also recorded: induce transient [Ca^2+], increases"
same,desensitisation to subsequent stimulation with LPC or SPC (1 μM),G2A [2]; [6],induced homologous and heterologous desensitisation; also recorded: induces desensitisation
same,[Ca2+]i response in control cells,MCF 10A cells,Neither parental or pEXV3 GFP transfected cells responded
same,cells with internalisation of G2A.GFP,G2A.GFP fusion receptor,< 50%
CCCCCCCCCCCCCCCCCC(=O)OC[C@@H](O)COP(=O)([O-])OCC[N+](C)(C)C [18:0 LPC],competition for binding of [3H] 16:0 LPC / [3H] SPC to G2A,G2A [1],potent competitors
CCCCCCCCCCCCCCCC(=O)OC[C@@H](O)COP(=O)([O-])OCC[N+](C)(C)C [16:0 LPC],competition for binding of [3H] 16:0 LPC / [3H] SPC to G2A,G2A [1],potent competitors
same,desensitisation to subsequent stimulation with LPC or SPC (1 μM),G2A [2]; [6],induces desensitisation
lysophosphatidyc acid [LPA],competition for binding of [3H] 16:0 LPC / [3H] SPC to G2A,G2A [1],not
same,transient increase in [Ca2+]i,G2A [2]; [3],transient elevations
same,[Ca2+]i response in control cells,MCF 10A cells,transient elevations
